Like-named read-outs stand apart in the source and are kept apart here.
Tests used:
[1] = Venetoclax plasma pharmacokinetics in wild-type, CYP3A(−/−) and OATP1B2(−/−) mice; assay type: in vivo; details: for AUC(0-t) / Cmax: mouse, plasma, po, mean (SE)
Method: In vivo experiments were performed with female and male mice from inbred wild-type strains (FVB, DBA) or with age- and sex-matched genetically-engineered mice with a deficiency of the Cyp3a locus (8-genes; […] The studies were conducted in accordance with the NIH's Guide for the Care and Use of Laboratory Animals and as approved by the University Laboratory Animal Resources Animal Care and Use Committee at Ohio State University (2015A00000101-R2; last approved 20 September 2021) and. Mice were housed in a temperature- and light-controlled environment with free access to water and a standard diet, excluding a 3-h fast before venetoclax administration. For in vivo studies, venetoclax was prepared for oral administration by dissolving the powder in DMSO (5%) and then adding PEG300 (50%), Tween-80 (5%), and water (40%) stepwise to create a suspension with a final concentration of 2 mg/mL. […] Based on our previous experience, all experiments were prospectively designed to have group sizes of five; however, pharmacokinetic data from two CYP3A(-/-) mice were excluded due to tolerability concerns, resulting in a final group size of three (Supplementary Table S1). Pharmacokinetic studies were performed as described previously. In brief, approximately 30 μL of whole blood was collected from each mouse at six time points between 5 min and 8 h after venetoclax administration; in most cases, samples were collected at 5 min, 15 min, 30 min, 1 h, 3 h, and 8 h. The first three samples were collected from a submandibular vein using a sterile 5-mm Goldenrod Animal Lancet and a heparinized capillary tube. The fourth and fifth samples were collected from the retro-orbital venous plexus using capillary tubes after anesthetizing the mice using 2% isoflurane. The terminal sample was collected into a 1.3-mL tube containing heparin by cardiac puncture using a syringe and needle. Whole blood samples were centrifuged at 13,000× g for 5 min. The plasma supernatant was then collected, immediately placed on dry ice, and stored at -80 °C until analysis. Venetoclax was quantified using a validated UHPLC-MS/MS analytical method; this method utilizes 5-μL sample volumes and has a lower limit of quantification of 5 ng/mL. Non-compartmental analysis was performed to determine the pharmacokinetic parameters of venetoclax using Phoenix WinNonlin version 8.0 (Certara, Princeton, NJ, USA). Peak plasma concentration (Cmax) was determined by visual inspection of the data from the log concentration versus time curves. The linear trapezoidal rule was used to obtain the area under the plasma concentration-time curve from time zero to the time of the last measurable concentration (AUC0-last).

[2] = target: T1, OATP1B1 (Homo sapiens, UniProt Q9Y6L6); assay: Competitive counterflow assay with 8-acetoxy-trisulfopyrene; assay type: cell-based; design: expressed in transfected cells
T1 sequence (Q9Y6L6 1-691): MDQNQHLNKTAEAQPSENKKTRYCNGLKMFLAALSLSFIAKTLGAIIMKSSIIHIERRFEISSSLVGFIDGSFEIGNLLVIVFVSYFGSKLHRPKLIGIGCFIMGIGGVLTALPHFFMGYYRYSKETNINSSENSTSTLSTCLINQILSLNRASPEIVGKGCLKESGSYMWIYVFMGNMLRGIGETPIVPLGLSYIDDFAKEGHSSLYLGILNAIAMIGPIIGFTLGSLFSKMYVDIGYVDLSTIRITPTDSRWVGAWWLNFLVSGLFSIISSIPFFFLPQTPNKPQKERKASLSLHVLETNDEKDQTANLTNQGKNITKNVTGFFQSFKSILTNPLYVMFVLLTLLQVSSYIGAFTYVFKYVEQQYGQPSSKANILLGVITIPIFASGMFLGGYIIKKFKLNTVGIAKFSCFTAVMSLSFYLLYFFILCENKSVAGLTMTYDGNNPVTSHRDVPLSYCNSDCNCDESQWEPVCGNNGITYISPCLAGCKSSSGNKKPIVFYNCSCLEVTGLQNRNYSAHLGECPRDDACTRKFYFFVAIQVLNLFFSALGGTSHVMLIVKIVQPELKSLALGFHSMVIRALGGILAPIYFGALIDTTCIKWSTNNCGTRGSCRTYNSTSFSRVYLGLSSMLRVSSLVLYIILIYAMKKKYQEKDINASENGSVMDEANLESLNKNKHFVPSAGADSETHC
Method: Competitive counterflow assays were performed with 8-acetoxy-trisulfopyrene, an activatable fluorogenic probe for OATP1B1, as described previously. In brief, cells expressing a vector or OATP1B1 were seeded in 96-well opaque plates in phenol-red free DMEM media with 10% FBS and induced with doxycycline for 24 h. On the day of the experiment, the media was removed, and the cells were washed three times with warm PBS. The cells were then incubated for 20 min at 37 °C with 100 µL of 5 µM 8-acetoxypyrene-1,3,6-trisulfonate uptake buffer (ACE; 125 mM NaCl, 4.8 mM KCl, 1.2 mM CaCl2, 1.2 mM KH2PO4, […], 25 mM 2-N-morpholino), ethanesulfonic acid, and 5.6 mM glucose, with the pH adjusted to 5.5). […] The fluorescence was measured at excitation and emission wavelengths of 460 nm and 510 nm, respectively, after 20 min of incubation to control for the number of cells.
The plates were incubated for 20 min at 37 °C. In the final step, the supernatant was removed, and the cells were washed three times with 200 µL ice-cold PBS to stop the reaction. PBS was then removed and 200 µL of 0.1 N NaOH was added to each well to normalize the pH. The fluorescence was measured as described above after another 20 min incubation at room temperature. The levels of cell dye were reported as a percent of the measurement from cells containing ACE alone.

[3] = plasma; cited from earlier work
[4] = cited from earlier work

Venetoclax AUC Fold Increase ([1]; CYP3A(−/−) + ketoconazole 50 mg/kg versus vehicle-treated CYP3A(−/−), listed as venetoclax): 1.6 fold
Venetoclax AUC Fold Increase ([1]; female OATP1B2(−/−) versus wild-type DBA): 2.0 (versus wild-type DBA) fold
Venetoclax AUC Fold Increase ([1]; female OATP1B2(−/−) versus wild-type DBA, listed as venetoclax): 2 fold
AUC(0-t) ([1]; female, CYP3A(−/−) knockout (FVB.129P2 background), 10 mg/kg, CYP3A(−/−), female, venetoclax 10 mg/kg PO, co-treatment None (control of micafungin experiment), read-out: Venetoclax AUC(0–8h)): 10600 ng·h/mL
AUC(0-t) ([1]; female, DBA, 10 mg/kg, wild-type DBA, female, n=10, venetoclax 10 mg/kg PO, no co-treatment, read-out: Venetoclax AUC(0–8h)): 3210 ng·h/mL
Cmax ([1]; female, DBA, 10 mg/kg, wild-type DBA, n=10, venetoclax 10 mg/kg PO, no co-treatment): 523 ng/mL
Cmax ([1]; female, FVB, 10 mg/kg, Table S1: wild-type FVB, female, N=5, venetoclax 10 mg/kg PO, no co-treatment): 1540 ng/mL
AUC(0-t) ([1]; female, FVB, 10 mg/kg, Table S1: wild-type FVB, female, N=5, venetoclax 10 mg/kg PO, no co-treatment, read-out: Venetoclax AUC(0-last)): 7430 ng·h/mL
Cmax ([1]; female, FVB, 10 mg/kg, wild-type FVB, female, venetoclax 10 mg/kg PO 30 min after ketoconazole 50 mg/kg PO): 3080 ng/mL
AUC(0-t) ([1]; female, FVB, 10 mg/kg, wild-type FVB, female, venetoclax 10 mg/kg PO 30 min after ketoconazole 50 mg/kg PO, read-out: Venetoclax AUC(0–8h)): 19700 ng·h/mL
AUC(0-t) ([1]; female, FVB, 10 mg/kg, wild-type FVB, female, venetoclax 10 mg/kg PO, co-treatment PEG400 (vehicle), read-out: Venetoclax AUC(0–8h)): 6530 ng·h/mL
Cmax ([1]; female, FVB, 10 mg/kg, wild-type FVB, venetoclax 10 mg/kg PO, co-treatment PEG400 (vehicle)): 1030 ng/mL
Cmax ([1]; female, FVB.129P2 CYP3A(-/-), 10 mg/kg, Table S1: CYP3A(-/-), female, N=3, venetoclax 10 mg/kg PO, no co-treatment): 3400 ng/mL
AUC(0-t) ([1]; female, FVB.129P2 CYP3A(-/-), 10 mg/kg, Table S1: CYP3A(-/-), female, N=3, venetoclax 10 mg/kg PO, no co-treatment, read-out: Venetoclax AUC(0-last)): 13700 ng·h/mL
Cmax ([1]; female, FVB.129P2 CYP3A(−/−), 10 mg/kg, CYP3A(−/−), female, venetoclax 10 mg/kg PO 30 min after ketoconazole 50 mg/kg PO): 2700 ng/mL
AUC(0-t) ([1]; female, FVB.129P2 CYP3A(−/−), 10 mg/kg, CYP3A(−/−), female, venetoclax 10 mg/kg PO 30 min after ketoconazole 50 mg/kg PO, read-out: Venetoclax AUC(0–8h)): 17300 ng·h/mL
AUC(0-t) ([1]; female, FVB.129P2 CYP3A(−/−), 10 mg/kg, CYP3A(−/−), female, venetoclax 10 mg/kg PO, co-treatment PEG 400 (vehicle), read-out: Venetoclax AUC(0–8h)): 10600 ng·h/mL
Cmax ([1]; female, FVB.129P2 CYP3A(−/−), 10 mg/kg, CYP3A(−/−), venetoclax 10 mg/kg PO, co-treatment None (control of micafungin experiment)): 1830 ng/mL
Cmax ([1]; female, FVB.129P2 CYP3A(−/−), 10 mg/kg, CYP3A(−/−), venetoclax 10 mg/kg PO, co-treatment PEG 400 (vehicle)): 1570 ng/mL
Cmax ([1]; female, FVB.129P2 CYP3A(−/−), CYP3A(−/−), female, venetoclax 10 mg/kg PO 30 min after micafungin 100 mg/kg IV): 2280 ng/mL
AUC(0-t) ([1]; female, FVB.129P2 CYP3A(−/−), CYP3A(−/−), female, venetoclax 10 mg/kg PO 30 min after micafungin 100 mg/kg IV, read-out: Venetoclax AUC(0–8h)): 13600 ng·h/mL
AUC(0-t) ([1]; female, OATP1B2(−/−), 10 mg/kg, OATP1B2(−/−), female, n=10, venetoclax 10 mg/kg PO, no co-treatment, read-out: Venetoclax AUC(0–8h)): 6480 ng·h/mL
Cmax ([1]; female, OATP1B2(−/−), 10 mg/kg, n=10, venetoclax 10 mg/kg PO, no co-treatment): 1070 ng/mL
Venetoclax AUC Fold Increase ([1]; male OATP1B2(-/-) versus male wild-type DBA (Figure S3, Table S1)): 1.7 fold
Cmax ([1]; male, DBA, 10 mg/kg, Table S1: wild-type DBA, male, venetoclax 10 mg/kg PO, no co-treatment): 958 ng/mL
AUC(0-t) ([1]; male, DBA, 10 mg/kg, Table S1: wild-type DBA, male, venetoclax 10 mg/kg PO, no co-treatment, read-out: Venetoclax AUC(0-last)): 5270 ng·h/mL
Cmax ([1]; male, OATP1B2(-/-), 10 mg/kg, Table S1: OATP1B2(-/-), male, venetoclax 10 mg/kg PO, no co-treatment): 1610 ng/mL
AUC(0-t) ([1]; male, OATP1B2(-/-), 10 mg/kg, Table S1: OATP1B2(-/-), male, venetoclax 10 mg/kg PO, no co-treatment, read-out: Venetoclax AUC(0-last)): 9200 ng·h/mL
Venetoclax AUC Fold Increase ([1]; untreated CYP3A(-/-) versus untreated wild-type FVB, female (Figure S2, Table S1)): 1.8 fold
Venetoclax AUC Fold Increase ([1]; vehicle-treated CYP3A(−/−) versus vehicle-treated wild-type FVB, listed as venetoclax): 1.6 fold
Venetoclax AUC Fold Increase ([1]; wild-type FVB + ketoconazole 50 mg/kg versus vehicle-treated wild-type FVB, listed as venetoclax): 3 fold
SMILES: CC1(C)CCC(CN2CCN(c3ccc(C(=O)NS(=O)(=O)c4ccc(NCC5CCOCC5)c([N+](=O)[O-])c4)c(Oc4cnc5[nH]ccc5c4)c3)CC2)=C(c2ccc(Cl)cc2)C1 [Venetoclax]
Venetoclax AUC Fold Increase ([1]; CYP3A(−/−) + ketoconazole 50 mg/kg versus vehicle-treated CYP3A(−/−)): 1.6 (versus vehicle-treated wild-type CYP3A(−/−)) fold
Venetoclax AUC Fold Increase ([1]; vehicle-treated CYP3A(−/−) versus vehicle-treated wild-type FVB): 1.6 (versus vehicle-treated wild-type FVB) fold
Venetoclax AUC Fold Increase ([1]; wild-type FVB + ketoconazole 50 mg/kg versus vehicle-treated wild-type FVB): 3.0 (versus vehicle-treated wild-type FVB) fold
Effect on fluorescence (cell dye level) in competitive counterflow ([2]; 5 µM ACE, venetoclax 200 µM, cyclosporin A 10 µM, paraformaldehyde 0.5%, 20 min): significantly decreased fluorescence
Actual unbound concentration of venetoclax in counterflow experiments ([2]; nominal concentration 200 µM): < 10 µM
Protein-bound in plasma [3]: > 99%
Variation in apparent oral clearance ([4]; at approved doses, patients): ~15 fold
DDI between venetoclax and ketoconazole (increase in venetoclax exposure) ([4]; humans): ~ 6 fold
Increase in systemic exposure to venetoclax with a single dose of rifampin ([4]; humans): 2 fold

Source: paper PMC9025810, “Interaction of Antifungal Drugs with CYP3A- and OATP1B-Mediated Venetoclax Elimination” (Pharmaceutics, 2022)
